Source: ChEMBL document CHEMBL5653615 (J Biol Chem, 2013)

Columns and labels:
[1] = target: Cyclin-dependent kinase 5/CDK5 activator 1 (Homo sapiens) (UniProt Q00535+Q15078); test: Inhibition of human CDK5/p35 at 18.6 nM by HotSpot assay relative to control; type: protein-complex assay
[2] = target: Tyrosine-protein kinase Fer (Homo sapiens) (UniProt P16591); test: Inhibition of human FER at 18.6 nM by HotSpot assay relative to control
[3] = target: T1, Serine/threonine-protein kinase Sgk2 (Homo sapiens) (UniProt Q9HBY8); test: Inhibition of human SGK2 at 18.6 nM by HotSpot assay relative to control
T1 sequence (whole entry): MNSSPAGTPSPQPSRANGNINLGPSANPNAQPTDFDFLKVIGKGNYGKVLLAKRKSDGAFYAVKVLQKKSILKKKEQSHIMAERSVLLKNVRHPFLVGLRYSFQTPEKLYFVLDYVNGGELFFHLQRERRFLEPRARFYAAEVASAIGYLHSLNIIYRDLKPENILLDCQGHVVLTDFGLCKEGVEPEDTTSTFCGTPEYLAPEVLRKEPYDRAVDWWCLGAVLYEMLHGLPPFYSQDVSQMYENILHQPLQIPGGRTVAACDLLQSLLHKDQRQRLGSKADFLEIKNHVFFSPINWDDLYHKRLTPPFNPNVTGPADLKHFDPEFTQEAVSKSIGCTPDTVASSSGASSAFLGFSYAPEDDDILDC

[4] = target: RAC-alpha serine/threonine-protein kinase (Homo sapiens) (UniProt P31749); test: Inhibition of human AKT1 at 1.82 nM by HotSpot assay relative to control
[5] = target: Death-associated protein kinase 2 (Homo sapiens) (UniProt Q9UIK4); test: Inhibition of human DAPK2 at 1.82 nM by HotSpot assay relative to control
[6] = target: Ephrin type-A receptor 4 (Homo sapiens) (UniProt P54764); test: Inhibition of human EPHA4 at 1.82 nM by HotSpot assay relative to control
Sequence of Ephrin type-A receptor 4 (Homo sapiens) (P54764 whole entry): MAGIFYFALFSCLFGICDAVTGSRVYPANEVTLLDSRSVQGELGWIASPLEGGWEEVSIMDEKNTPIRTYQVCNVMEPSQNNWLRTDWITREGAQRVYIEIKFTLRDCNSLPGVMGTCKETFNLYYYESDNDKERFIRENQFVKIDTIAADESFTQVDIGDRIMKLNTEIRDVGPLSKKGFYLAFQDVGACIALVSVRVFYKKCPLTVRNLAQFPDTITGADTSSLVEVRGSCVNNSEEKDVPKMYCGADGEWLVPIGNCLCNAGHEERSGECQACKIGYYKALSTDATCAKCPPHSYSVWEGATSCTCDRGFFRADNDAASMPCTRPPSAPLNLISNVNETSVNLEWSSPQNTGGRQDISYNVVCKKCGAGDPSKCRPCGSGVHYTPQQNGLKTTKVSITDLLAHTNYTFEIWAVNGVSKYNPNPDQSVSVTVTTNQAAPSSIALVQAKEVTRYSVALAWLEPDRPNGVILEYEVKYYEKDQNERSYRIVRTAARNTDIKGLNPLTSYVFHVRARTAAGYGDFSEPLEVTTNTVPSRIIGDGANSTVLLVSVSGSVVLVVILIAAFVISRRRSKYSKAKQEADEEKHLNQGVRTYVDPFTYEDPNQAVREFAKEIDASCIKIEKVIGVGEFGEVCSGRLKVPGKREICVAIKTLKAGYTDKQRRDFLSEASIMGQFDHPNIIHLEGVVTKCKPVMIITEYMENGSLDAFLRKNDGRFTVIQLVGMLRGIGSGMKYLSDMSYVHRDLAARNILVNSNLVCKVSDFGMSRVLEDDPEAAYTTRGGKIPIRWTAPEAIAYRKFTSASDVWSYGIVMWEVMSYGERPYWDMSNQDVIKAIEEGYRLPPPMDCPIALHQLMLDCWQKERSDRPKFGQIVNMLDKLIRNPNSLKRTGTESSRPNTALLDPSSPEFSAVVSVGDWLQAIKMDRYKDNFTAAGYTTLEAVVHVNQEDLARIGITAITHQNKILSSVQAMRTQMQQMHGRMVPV

[7] = target: Tyrosine-protein kinase Fes/Fps (Homo sapiens) (UniProt P07332); test: Inhibition of human FES at 1.82 nM by HotSpot assay relative to control
Sequence of Tyrosine-protein kinase Fes/Fps (Homo sapiens) (P07332 whole entry): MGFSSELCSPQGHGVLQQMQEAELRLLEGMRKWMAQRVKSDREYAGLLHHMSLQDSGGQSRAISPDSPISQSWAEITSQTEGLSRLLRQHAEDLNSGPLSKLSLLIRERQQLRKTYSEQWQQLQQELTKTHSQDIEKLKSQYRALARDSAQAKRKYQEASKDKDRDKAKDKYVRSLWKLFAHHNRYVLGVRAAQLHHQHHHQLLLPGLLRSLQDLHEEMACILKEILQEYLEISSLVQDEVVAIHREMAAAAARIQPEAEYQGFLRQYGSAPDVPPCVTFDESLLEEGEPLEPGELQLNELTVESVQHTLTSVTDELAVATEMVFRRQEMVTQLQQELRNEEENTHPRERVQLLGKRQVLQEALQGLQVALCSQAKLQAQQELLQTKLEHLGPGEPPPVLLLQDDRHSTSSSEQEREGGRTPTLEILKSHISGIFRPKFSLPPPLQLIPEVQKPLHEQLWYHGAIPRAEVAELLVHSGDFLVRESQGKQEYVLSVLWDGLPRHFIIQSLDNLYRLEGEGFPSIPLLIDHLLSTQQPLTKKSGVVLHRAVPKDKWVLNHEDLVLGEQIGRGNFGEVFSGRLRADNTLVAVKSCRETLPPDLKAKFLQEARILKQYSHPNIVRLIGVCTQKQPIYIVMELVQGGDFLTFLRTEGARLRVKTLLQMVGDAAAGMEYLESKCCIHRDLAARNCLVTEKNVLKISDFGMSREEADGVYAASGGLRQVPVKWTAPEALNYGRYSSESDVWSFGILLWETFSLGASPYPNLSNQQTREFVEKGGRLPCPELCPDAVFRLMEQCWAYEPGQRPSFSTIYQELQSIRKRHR

[8] = target: T2, Interleukin-1 receptor-associated kinase 4 (Homo sapiens) (UniProt Q9NWZ3); test: Inhibition of human IRAK4 at 1.82 nM by HotSpot assay relative to control
T2 sequence (whole entry): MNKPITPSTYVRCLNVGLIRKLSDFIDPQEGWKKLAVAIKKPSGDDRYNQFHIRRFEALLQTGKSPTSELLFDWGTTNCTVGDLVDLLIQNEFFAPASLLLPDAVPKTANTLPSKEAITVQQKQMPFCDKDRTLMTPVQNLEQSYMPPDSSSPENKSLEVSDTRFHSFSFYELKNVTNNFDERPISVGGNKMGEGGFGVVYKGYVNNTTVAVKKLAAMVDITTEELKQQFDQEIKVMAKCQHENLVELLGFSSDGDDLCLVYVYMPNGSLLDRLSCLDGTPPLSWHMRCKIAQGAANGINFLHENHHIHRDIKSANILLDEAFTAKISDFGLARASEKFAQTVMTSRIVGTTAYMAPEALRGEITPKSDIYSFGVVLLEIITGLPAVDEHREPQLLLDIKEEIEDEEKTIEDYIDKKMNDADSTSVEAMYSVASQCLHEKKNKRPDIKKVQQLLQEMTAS

[9] = target: Myosin light chain kinase, smooth muscle (Homo sapiens) (UniProt Q15746); test: Inhibition of human MYLK at 1.82 nM by HotSpot assay relative to control
[10] = target: T3, Serine/threonine-protein kinase TAO1 (Homo sapiens) (UniProt Q7L7X3); test: Inhibition of human TAOK1 at 1.82 nM by HotSpot assay relative to control
T3 sequence (whole entry): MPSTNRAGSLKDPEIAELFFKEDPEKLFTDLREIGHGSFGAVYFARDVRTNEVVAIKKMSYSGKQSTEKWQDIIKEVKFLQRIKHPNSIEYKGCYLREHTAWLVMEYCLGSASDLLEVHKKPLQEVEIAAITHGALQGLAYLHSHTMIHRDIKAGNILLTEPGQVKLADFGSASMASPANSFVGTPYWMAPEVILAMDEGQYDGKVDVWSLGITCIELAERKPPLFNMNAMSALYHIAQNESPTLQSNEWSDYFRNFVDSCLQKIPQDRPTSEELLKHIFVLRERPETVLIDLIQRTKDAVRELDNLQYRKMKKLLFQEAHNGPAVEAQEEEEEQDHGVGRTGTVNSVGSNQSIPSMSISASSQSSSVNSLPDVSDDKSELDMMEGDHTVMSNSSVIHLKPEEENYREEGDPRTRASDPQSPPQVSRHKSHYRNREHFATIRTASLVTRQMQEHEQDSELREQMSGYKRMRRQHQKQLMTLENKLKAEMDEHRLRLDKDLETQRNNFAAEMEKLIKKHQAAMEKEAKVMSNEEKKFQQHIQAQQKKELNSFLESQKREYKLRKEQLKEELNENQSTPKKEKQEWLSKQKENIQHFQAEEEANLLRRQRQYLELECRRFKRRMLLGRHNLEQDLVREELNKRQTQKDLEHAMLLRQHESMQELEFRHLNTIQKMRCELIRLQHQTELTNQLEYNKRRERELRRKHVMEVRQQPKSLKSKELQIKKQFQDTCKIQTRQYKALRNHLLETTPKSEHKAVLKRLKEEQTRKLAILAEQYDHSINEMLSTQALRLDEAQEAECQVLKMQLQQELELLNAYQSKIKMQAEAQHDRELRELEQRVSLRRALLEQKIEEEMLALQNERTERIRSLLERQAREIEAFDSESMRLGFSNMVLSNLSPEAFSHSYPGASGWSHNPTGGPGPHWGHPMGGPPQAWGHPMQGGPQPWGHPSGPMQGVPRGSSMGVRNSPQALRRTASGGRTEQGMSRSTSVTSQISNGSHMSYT

[11] = target: High affinity nerve growth factor receptor (Homo sapiens) (UniProt P04629); test: Inhibition of human TRKA at 1.82 nM by HotSpot assay relative to control
Sequence of High affinity nerve growth factor receptor (Homo sapiens) (P04629 33-796 limits assumed): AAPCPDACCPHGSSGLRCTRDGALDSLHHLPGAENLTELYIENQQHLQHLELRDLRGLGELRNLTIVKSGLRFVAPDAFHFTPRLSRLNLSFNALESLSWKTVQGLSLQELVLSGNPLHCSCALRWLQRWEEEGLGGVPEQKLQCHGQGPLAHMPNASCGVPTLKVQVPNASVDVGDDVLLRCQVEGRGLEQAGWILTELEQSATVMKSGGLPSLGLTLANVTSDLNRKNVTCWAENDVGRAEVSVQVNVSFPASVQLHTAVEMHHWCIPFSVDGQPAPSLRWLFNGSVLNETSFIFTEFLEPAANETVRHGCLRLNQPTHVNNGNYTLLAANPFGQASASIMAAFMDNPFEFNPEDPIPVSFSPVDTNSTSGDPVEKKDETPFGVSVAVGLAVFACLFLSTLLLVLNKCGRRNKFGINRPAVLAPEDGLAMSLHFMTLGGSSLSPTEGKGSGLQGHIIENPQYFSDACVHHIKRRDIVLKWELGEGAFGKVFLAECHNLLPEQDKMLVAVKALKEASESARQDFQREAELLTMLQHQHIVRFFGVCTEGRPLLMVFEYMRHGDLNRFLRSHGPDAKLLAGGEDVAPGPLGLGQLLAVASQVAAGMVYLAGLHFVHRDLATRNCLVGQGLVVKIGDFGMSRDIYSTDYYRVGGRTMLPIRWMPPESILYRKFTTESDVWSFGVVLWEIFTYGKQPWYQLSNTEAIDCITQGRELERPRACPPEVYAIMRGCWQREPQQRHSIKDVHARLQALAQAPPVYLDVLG

[12] = target: Serine/threonine-protein kinase WNK2 (Homo sapiens) (UniProt Q9Y3S1); test: Inhibition of human WNK2 at 1.82 nM by HotSpot assay relative to control
Sequence of Serine/threonine-protein kinase WNK2 (Homo sapiens) (Q9Y3S1 whole entry): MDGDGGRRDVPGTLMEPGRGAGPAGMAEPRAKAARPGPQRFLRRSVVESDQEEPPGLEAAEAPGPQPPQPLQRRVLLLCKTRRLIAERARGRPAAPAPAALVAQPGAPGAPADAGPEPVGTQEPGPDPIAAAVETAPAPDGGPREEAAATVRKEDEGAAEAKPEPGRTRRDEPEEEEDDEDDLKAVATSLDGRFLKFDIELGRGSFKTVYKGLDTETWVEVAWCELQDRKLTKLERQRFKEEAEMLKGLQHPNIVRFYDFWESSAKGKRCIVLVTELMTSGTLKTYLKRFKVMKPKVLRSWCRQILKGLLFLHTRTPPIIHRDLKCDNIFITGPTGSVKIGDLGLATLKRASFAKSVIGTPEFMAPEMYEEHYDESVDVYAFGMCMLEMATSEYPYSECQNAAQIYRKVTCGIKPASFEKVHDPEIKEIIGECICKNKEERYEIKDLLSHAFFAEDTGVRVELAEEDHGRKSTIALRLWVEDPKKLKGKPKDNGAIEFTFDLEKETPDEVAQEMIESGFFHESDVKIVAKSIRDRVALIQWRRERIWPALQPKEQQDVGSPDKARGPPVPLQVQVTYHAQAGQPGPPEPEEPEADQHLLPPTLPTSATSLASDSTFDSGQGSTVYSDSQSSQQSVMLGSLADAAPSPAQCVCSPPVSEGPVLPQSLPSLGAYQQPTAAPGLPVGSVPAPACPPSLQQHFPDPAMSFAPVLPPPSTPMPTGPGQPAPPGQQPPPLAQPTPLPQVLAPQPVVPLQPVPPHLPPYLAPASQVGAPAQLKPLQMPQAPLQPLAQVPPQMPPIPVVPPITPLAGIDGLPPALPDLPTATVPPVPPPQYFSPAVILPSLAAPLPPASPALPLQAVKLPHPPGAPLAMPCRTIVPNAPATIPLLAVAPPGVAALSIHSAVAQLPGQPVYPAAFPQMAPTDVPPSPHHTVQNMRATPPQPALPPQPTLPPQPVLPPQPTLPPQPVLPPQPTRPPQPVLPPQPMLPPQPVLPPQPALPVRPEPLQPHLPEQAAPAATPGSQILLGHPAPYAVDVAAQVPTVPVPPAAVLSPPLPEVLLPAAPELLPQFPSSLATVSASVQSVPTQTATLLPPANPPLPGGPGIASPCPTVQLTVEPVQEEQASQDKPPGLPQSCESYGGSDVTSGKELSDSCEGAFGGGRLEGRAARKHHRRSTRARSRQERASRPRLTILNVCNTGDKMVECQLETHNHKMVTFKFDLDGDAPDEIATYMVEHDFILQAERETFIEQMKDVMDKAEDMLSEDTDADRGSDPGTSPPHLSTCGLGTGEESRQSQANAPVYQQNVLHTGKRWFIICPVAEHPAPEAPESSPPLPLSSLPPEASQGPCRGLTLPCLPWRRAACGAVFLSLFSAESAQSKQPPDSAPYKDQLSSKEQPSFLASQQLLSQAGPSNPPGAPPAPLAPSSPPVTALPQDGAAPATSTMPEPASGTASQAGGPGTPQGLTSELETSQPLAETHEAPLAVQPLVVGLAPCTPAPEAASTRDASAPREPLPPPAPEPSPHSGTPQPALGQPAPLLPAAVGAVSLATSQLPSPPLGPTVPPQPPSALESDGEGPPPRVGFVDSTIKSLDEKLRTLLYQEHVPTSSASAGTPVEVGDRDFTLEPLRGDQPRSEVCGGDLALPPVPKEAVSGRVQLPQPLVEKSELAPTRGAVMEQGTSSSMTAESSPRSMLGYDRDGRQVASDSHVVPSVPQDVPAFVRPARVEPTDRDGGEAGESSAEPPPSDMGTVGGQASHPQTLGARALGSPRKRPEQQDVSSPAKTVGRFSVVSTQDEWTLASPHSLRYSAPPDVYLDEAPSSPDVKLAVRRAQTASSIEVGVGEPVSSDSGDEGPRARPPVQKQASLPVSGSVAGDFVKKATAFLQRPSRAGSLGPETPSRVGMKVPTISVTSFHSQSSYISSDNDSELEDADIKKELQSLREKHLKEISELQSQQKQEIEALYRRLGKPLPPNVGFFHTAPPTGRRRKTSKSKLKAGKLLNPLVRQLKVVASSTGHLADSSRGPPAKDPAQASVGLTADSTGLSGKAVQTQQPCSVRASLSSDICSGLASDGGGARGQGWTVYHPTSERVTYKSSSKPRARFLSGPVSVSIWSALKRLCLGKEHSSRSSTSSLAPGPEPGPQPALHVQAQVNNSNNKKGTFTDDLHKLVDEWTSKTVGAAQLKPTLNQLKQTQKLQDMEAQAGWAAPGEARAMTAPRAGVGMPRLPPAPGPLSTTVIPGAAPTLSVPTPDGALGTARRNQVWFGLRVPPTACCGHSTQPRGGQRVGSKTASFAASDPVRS

[13] = target: Mitogen-activated protein kinase kinase kinase 7 (Homo sapiens) (UniProt O43318); settings: dose 1.82 nM
Description: Inhibition of human TAK1 at 1.82 nM by HotSpot assay relative to control

| inhibition [1] [%] | inhibition [2] [%] | inhibition [3] [%] | inhibition [4] [%] | inhibition [6] [%] | inhibition [7] [%] | inhibition [8] [%] | inhibition [9] [%] | inhibition [10] [%] | inhibition [11] [%] | inhibition [12] [%] | inhibition [13] [%] | SMILES | inhibition [5] [%] |
| --- | --- | --- | --- | --- | --- | --- | --- | --- | --- | --- | --- | --- | --- |
| -1.84 | -4.79 | -3.95 |  |  |  |  |  |  |  |  |  | C[C@]1(O)C[C@@H](c2nc(-c3ccc4ccc(-c5ccccc5)nc4c3)c3c(N)nccn32)C1 |  |
|  |  |  | 1.89 | -4.4 | 5.24 | -4.67 | 2.24 | 4.21 | 21.1 | -1.14 | 3.35 | C[C@@]1(C(=O)Nc2ccc(F)nc2)CCCN1c1nc(Nc2cc(C3CC3)n[nH]2)c2cccn2n1 | -1.36 |
